Measured values: US20180282819A1, “Targeting the Histone Pathway to Detect and Overcome Anthracyclin Resistance” (ONTARIO INSTITUTE FOR CANCER RESEARCH (OICR), priority 2015, published 2018)

Legend:
Format in all cases: cell-based, human
[1] = test system: MCF7 Nat (native MCF7 cells); assay: HDAC inhibitor cytotoxicity, CellTiter-Glo viability
Description: (§1) All inhibitors were provided by the Drug Discovery group at the Ontario Institute for Cancer Research (OICR, Toronto, Canada). Cells were seeded at 1000-1500 cells/well into 384-well plates (Greiner, Mississauga, Canada). […] After 72 h, the effects of inhibitors were determined using CellTiter-Glo Luminescent Cell Viability Assay (Promega, Madison, USA) and the Wallac EnVision 2104 Multilabel Reader (Perkin-Elmer, Woodbridge, Canada). Raw data were normalized to negative (media) and positive (20 μM staurosporine) controls and analyzed in GraphPad Prism5.

[2] = test system: SKBR3 EpiR (epirubicin-resistant SKBR3 cells); assay: as above; details: for IC50: 72 h, CellTiter-Glo, in the presence of selection dose of epirubicin (15 nM)
Description: as §1

[3] = test system: ZR75 Nat (native ZR-75-1 cells); assay: as above
Description: as §1

[4] = test system: 231 EpiR (epirubicin-resistant MDA-MB-231 cells); assay: as above; details: for IC50: 72 h, CellTiter-Glo, in the presence of selection dose of epirubicin (25 nM)
Description: as §1

[5] = test system: MCF7 EpiR (epirubicin-resistant MCF7 cells); assay: as above; details: for IC50: 72 h, CellTiter-Glo, in the presence of selection dose of epirubicin (30 nM)
Description: as §1

[6] = test system: ZR75 EpiR (epirubicin-resistant ZR-75-1 cells); assay: as above; details: 72 h, in the presence of selection dose of epirubicin (10 nM)
Description: as §1

[7] = test system: 231 Nat (native MDA-MB-231 cells); assay: as above
Description: as §1

[8] = test system: SKBR3 Nat (native SKBR3 cells); assay: as above
Description: as §1

[9] = test system: all four epirubicin-resistant cell lines (MDA-MB-231, MCF7, SKBR3, ZR-75-1); assay: Drug resistance and cross resistance, CCK-8 viability; details: 72 h
Description: (§2) Native and resistant cells were exposed to drug concentrations ranging from 0.3 nM to 3000 nM. Cell viability was determined 72 h later by CCK-8 assay. A) Percent of live cells relative to DMSO control was plotted against epirubicin concentration. Black=native cells, magenta=resistant cells. B) IC50 values in nM concentration±standard deviation. Resistance factor is shown in parenthesis and represents resistant IC50/native IC50.
(§3) Breast cancer cell lines (MDA-MB-231, MCF7, ZR-75-1, SKBR3) were purchased from ATCC and cultured in DMEM (except SKBR3, cultured in RPMI) supplemented with 10% heat-inactivated fetal bovine serum and 1% L-glutamine (Gibco, Burlington, Canada). Epirubicin-resistant cell lines were generated by exposing native cells to increasing concentrations of epirubicin with an initial concentration set at 0.5 nM. Resistance was defined when IC50 value superseded the IC50 value of the corresponding native cell line, and resistant cells could not tolerate further increase in drug concentration. Drug resistance and cross resistance were determined by exposing cells to drug concentrations ranging from 0.3-3000 nM for 72 h. Cell viability was determined by Cell Counting Kit-8 (CCK-8, Dojindo, Cedarlane, Burlington, Canada). IC50 were calculated in GraphPad Prism5.

[10] = test system: ZR-75-1 epirubicin-resistant cells; assay: Cross resistance, CCK-8 viability; details: ZR-75-1, 72 h
Description: as §2, §3

[11] = test system: MDA-MB-231 epirubicin-resistant cells; assay: Cross resistance, CCK-8 viability; details: MDA-MB-231, 72 h
Description: as §2, §3

[12] = test system: MCF7 epirubicin-resistant cells; assay: Cross resistance, CCK-8 viability; details: MCF7, 72 h
Description: as §2, §3

[13] = test system: SKBR3 epirubicin-resistant cells; assay: Cross resistance, CCK-8 viability; details: SKBR3, 72 h
Description: as §2, §3

| Molecule | IC50 ([1]; Homo sapiens, MCF7, 72 h) [nM] | IC50 [2] [nM] | IC50 ([3]; Homo sapiens, ZR75, 72 h) [nM] | IC50 [4] [nM] | IC50 [5] [nM] | IC50 [6] [nM] | IC50 ([7]; Homo sapiens, MDA-MB-231, 72 h) [nM] | IC50 ([8]; Homo sapiens, SK-BR-3, 72 h) [nM] | further results |
| --- | --- | --- | --- | --- | --- | --- | --- | --- | --- |
| O=C(CCCCCN1C(=O)c2cccc3cccc(c23)C1=O)NO [Scriptaid] | 1340 | 940 | 1660 | 1300 | 720 | 1230 | 3810 | 1250 |  |
| N.N.O=C([O-])C1(C(=O)[O-])CCC1.[Pt+2] [carboplatin] |  |  |  |  |  |  |  |  | cross-resistance of epirubicin-resistant cell lines [9]: None of the cell lines were cross-resistant |
| O=C(/C=C/c1ccc(CN(CCO)CCc2c[nH]c3ccccc23)cc1)NO [Dacinostat] | 20 | 60 | 20 | 20 | 10 | 20 | 40 | 20 |  |
| Cc1[nH]c2ccccc2c1CCNCc1ccc(/C=C/C(=O)NO)cc1 [Panobinostat] | 10 | 70 | 10 | 10 | 10 | 20 | 20 | 20 |  |
| Nc1ccccc1NC(=O)c1ccc(CNc2nccc(-c3cccnc3)n2)cc1 [Mocetinostat] | 320 | 3690 | 350 | 430 | 410 | 430 | 850 | 1000 |  |
| CC(=O)O[C@@]12CO[C@@H]1C[C@H](O)[C@@]1(C)C(=O)[C@H](O)C3=C(C)[C@@H](OC(=O)[C@H](O)[C@@H](NC(=O)OC(C)(C)C)c4ccccc4)C[C@@](O)([C@@H](OC(=O)c4ccccc4)[C@H]21)C3(C)C [docetaxel] |  |  |  |  |  |  |  |  | cross-resistance of epirubicin-resistant cells [10]: not taxane-resistant; cross-resistance of epirubicin-resistant cells [11]: not taxane-resistant; cross-resistance of epirubicin-resistant cells [12]: not taxane-resistant; cross-resistance of epirubicin-resistant cells [13]: cross-resistant |
| CN(C)Cc1c(C(=O)NCCOc2ccc(C(=O)NO)cc2)oc2ccccc12 [Abexinostat] | 110 | 2250 | 140 | 120 | 90 | 160 | 270 | 210 |  |
| CCCCc1nc2cc(/C=C/C(=O)NO)ccc2n1CCN(CC)CC [Pracinostat] | 160 | 920 | 150 | 180 | 120 | 230 | 540 | 260 | cytotoxicity for epirubicin-resistant cells compared to native cell lines ([4]; MDA-MB-231, with epirubicin): more cytotoxic |
| COc1cccc2c1C(=O)c1c(O)c3c(c(O)c1C2=O)C[C@@](O)(C(=O)CO)C[C@@H]3O[C@H]1C[C@H](N)[C@H](O)[C@H](C)O1 [doxorubicin] |  |  |  |  |  |  |  |  | cross-resistance of epirubicin-resistant cell lines [9]: resistant |
| O=C(/C=C/c1cccc(C(=O)NO)c1)NO [CBHA] |  | 1030 |  | 1750 | 3580 | 2250 |  |  | IC50 ([1]; 72 h): 1180 nM; IC50 ([3]; 72 h): 2940 nM; IC50 ([7]; 72 h): 2390 nM; IC50 ([8]; 72 h): 1450 nM |
| CC(/C=C/C(=O)NO)=C\[C@@H](C)C(=O)c1ccc(N(C)C)cc1 [Trichostatin A] |  | 1240 |  | 150 | 500 | 2280 |  |  | IC50 ([3]; 72 h): 1830 nM; IC50 ([7]; 72 h): 330 nM; IC50 ([8]; 72 h): 1520 nM |
| Cn1cc(CNCC2CCN(c3ncc(C(=O)NO)cn3)CC2)c2ccccc21 [Quisinostat] | 10 | 220 | 10 | 10 | 10 | 10 | 10 | 10 |  |
| CCN(CC)Cc1ccc2cc(COC(=O)Nc3ccc(C(=O)NO)cc3)ccc2c1 [Givinostat] | 100 | 2740 | 170 | 160 | 80 | 180 | 260 | 220 |  |
| Oxamflatin |  | 690 |  | 290 | 250 | 1200 |  |  | IC50 ([1]; 72 h): 620 nM; cytotoxicity for epirubicin-resistant cells compared to native cell lines ([2]; SKBR3, with epirubicin): more cytotoxic; IC50 ([3]; 72 h): 680 nM; IC50 ([7]; 72 h): 590 nM; IC50 ([8]; 72 h): 1280 nM |
| O=C(/C=C/c1cccc(S(=O)(=O)Nc2ccccc2)c1)NO [Belinostat] | 250 | 150 | 360 | 180 | 200 | 460 | 500 | 210 |  |
| CC(C)(C)OC(=O)Nc1ccc(-c2cc(C(=O)NCCCCCCC(=O)NO)no2)cc1 [CAY10603] |  | 1030 |  | 820 | 380 | 750 |  |  | IC50 ([1]; 72 h): 610 nM; IC50 ([3]; 72 h): 980 nM; cytotoxicity for epirubicin-resistant cells compared to native cell lines ([5]; MCF7, with epirubicin): more cytotoxic; IC50 ([7]; 72 h): 1270 nM; IC50 ([8]; 72 h): 440 nM |
| CCC(=O)CCCCC[C@@H]1NC(=O)[C@H]2CCCCN2C(=O)[C@H]([C@@H](C)CC)NC(=O)[C@H](Cc2cn(OC)c3ccccc23)NC1=O |  | 2210 |  | 110 | 110 | 250 |  |  | IC50 ([1]; 72 h): 70 nM; IC50 ([3]; 72 h): 210 nM; IC50 ([7]; 72 h): 230 nM; IC50 ([8]; 72 h): 170 nM |
| CC(=O)O[C@H]1C(=O)[C@@]2(C)[C@H]([C@H](OC(=O)c3ccccc3)[C@]3(O)C[C@H](OC(=O)[C@H](O)[C@@H](NC(=O)c4ccccc4)c4ccccc4)C(C)=C1C3(C)C)[C@]1(OC(C)=O)CO[C@@H]1C[C@@H]2O [paclitaxel] |  |  |  |  |  |  |  |  | cross-resistance of epirubicin-resistant cells [10]: not taxane-resistant; cross-resistance of epirubicin-resistant cells [11]: not taxane-resistant; cross-resistance of epirubicin-resistant cells [12]: not taxane-resistant; cross-resistance of epirubicin-resistant cells [13]: cross-resistant |
| CCc1c2c(nc3ccc(O)cc13)-c1cc3c(c(=O)n1C2)COC(=O)[C@]3(O)CC [SN-38] |  |  |  |  |  |  |  |  | cross-resistance of epirubicin-resistant cells [10]: tolerated only small increases in SN-38 concentrations; cross-resistance of epirubicin-resistant cells [11]: cross-resistant; cross-resistance of epirubicin-resistant cells [12]: tolerated only small increases in SN-38 concentrations; cross-resistance of epirubicin-resistant cells [13]: cross-resistant |
